Consider 6 molecules from PubChem BioAssay AID1919016 (Molecular Pharmacology Branch, DTP, NCI, 2023).

The test system of this experiment is NCI-H196 complex spheroid growth, percent test/control. Briefly: Anticancer human tumor NCI-H196 cell line growth inhibition [AhR].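 For all read-outs here: seven days of drug exposure starting three days after plating.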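 For viability, T/C: 100% = DMSO vehicle control wells.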 The conditions noted are these: for viability, T/C: stronger effect = lower value. In short, it runs like this:
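Spheroids combined tumor cells with HUVEC endothelial cells and human MSCs as stroma. AhR antagonists were paired with standard or investigational drugs, each dosed in half-log steps down from near clinical Cmax, or from 10 microM where Cmax was unknown.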

The mark [1] stands for this setting: curve of first compound, second compound 0.1 µM.
The mark [2] stands for this setting: curve of first compound, second compound 0.316 µM.
The mark [3] stands for this setting: curve of first compound, second compound 1 µM.
Setting [4] is: curve of first compound, second compound 3.16 µM.
The mark [5] stands for this setting: curve of first compound, second compound 10 µM.
[6] abbreviates: second compound 0.1 µM, first compound 0.0316 µM.
Setting [7] is: second compound 0.1 µM, first compound 0.1 µM.
The mark [8] stands for this setting: second compound 0.1 µM, first compound 0.316 µM.
Where [9] appears, read: second compound 0.1 µM, first compound 1 µM.
[10] abbreviates: second compound 0.316 µM, first compound 0.0316 µM.
The mark [11] stands for this setting: second compound 0.316 µM, first compound 0.1 µM.
Where [12] appears, read: second compound 0.316 µM, first compound 0.316 µM.
The mark [13] stands for this setting: second compound 0.316 µM, first compound 1 µM.
Where [14] appears, read: second compound 1 µM, first compound 0.0316 µM.
Where [15] appears, read: second compound 1 µM, first compound 0.1 µM.
[16] abbreviates: second compound 1 µM, first compound 0.316 µM.
Setting [17] is: second compound 1 µM, first compound 1 µM.
Setting [18] is: second compound 3.16 µM, first compound 0.0316 µM.
The mark [19] stands for this setting: second compound 3.16 µM, first compound 0.1 µM.
Setting [20] is: second compound 3.16 µM, first compound 0.316 µM.
Where [21] appears, read: second compound 3.16 µM, first compound 1 µM.
The mark [22] stands for this setting: second compound 10 µM, first compound 0.0316 µM.
[23] abbreviates: second compound 10 µM, first compound 0.1 µM.
The mark [24] stands for this setting: second compound 10 µM, first compound 0.316 µM.
The mark [25] stands for this setting: second compound 10 µM, first compound 1 µM.

Several values for one entry are separate records, joined by “and”; a condition that tells them apart may be missing. Equal entries are not always repeated.

Take `CCN(c1cc(-c2ccc(CN3CCOCC3)cc2)cc(C(=O)NCc2c(C)cc(C)[nH]c2=O)c1C)C1CCOCC1` + CC(CO)NC(=O)c1cc(-c2ccc(Cl)cc2)nn(-c2cnn(C)c2)c1=O: the IC50 reads like this: under setting [1], greater than 3000 nM; under setting [2], greater than 3000 nM; under setting [3], greater than 3000 nM; under setting [4], greater than 3000 nM; under setting [5], greater than 3000 nM. The viability, T/C runs as follows: (second compound 0.1 µM, first compound 0.00949 µM) 111%; (second compound 0.1 µM, first compound 0.03 µM) 111%; (second compound 0.1 µM, first compound 0.0949 µM) 105%; (second compound 0.1 µM, first compound 0.3 µM) 108%; (second compound 0.1 µM, first compound 0.949 µM) 111%; (second compound 0.1 µM, first compound 3 µM) 107%. Moreover, the viability, T/C runs as follows: (second compound 0.316 µM, first compound 0.00949 µM) 123%; (second compound 0.316 µM, first compound 0.03 µM) 118%; (second compound 0.316 µM, first compound 0.0949 µM) 105%; (second compound 0.316 µM, first compound 0.3 µM) 111%; (second compound 0.316 µM, first compound 0.949 µM) 118%; (second compound 0.316 µM, first compound 3 µM) 121%. Also, the viability, T/C reads like this: (second compound 1 µM, first compound 0.00949 µM) 112%; (second compound 1 µM, first compound 0.03 µM) 116%; (second compound 1 µM, first compound 0.0949 µM) 113%; (second compound 1 µM, first compound 0.3 µM) 117%; (second compound 1 µM, first compound 0.949 µM) 118%; (second compound 1 µM, first compound 3 µM) 118%. Moreover, the viability, T/C is 121% (second compound 3.16 µM, first compound 0.00949 µM); 112% (second compound 3.16 µM, first compound 0.03 µM); 121% (second compound 3.16 µM, first compound 0.0949 µM); 112% (second compound 3.16 µM, first compound 0.3 µM); 123% (second compound 3.16 µM, first compound 0.949 µM); 108% (second compound 3.16 µM, first compound 3 µM). The viability, T/C is 120% (second compound 10 µM, first compound 0.00949 µM); 127% (second compound 10 µM, first compound 0.03 µM); 123% (second compound 10 µM, first compound 0.0949 µM); 115% (second compound 10 µM, first compound 0.3 µM); 115% (second compound 10 µM, first compound 0.949 µM); 124% (second compound 10 µM, first compound 3 µM).

On to `CC1COCCN1c1cc(-c2ccnn2C)c2ccnc(-c3ccn[nH]3)c2n1` (configuration not stated), for which the viability, T/C is 88.9% and 98.2% and 94.9% (compound 0.00316 µM); 96.8% and 97.7% and 89.9% (compound 0.01 µM); 87.6% and 92.7% and 96.8% (compound 0.0316 µM); 70.2% and 70.5% and 75.3% (compound 0.1 µM); 67% and 59.4% and 75.4% (compound 0.316 µM); 65.5% and 56.8% and 61.1% (compound 1 µM). The IC50 (curve of compound) is greater than 1000 nM.

With `CC(CO)NC(=O)c1cc(-c2ccc(Cl)cc2)nn(-c2cnn(C)c2)c1=O` (configuration not stated), the viability, T/C (compound 1 µM) is 105% [middle of 21 runs] and the viability, T/C (compound 3.16 µM) was 106% [middle of 19 runs]. Under “compound alone, run of 08/08/2022”, the IC50 is greater than 10000 nM.

On to `CC1COCCN1c1cc(-c2ccnn2C)c2ccnc(-c3ccn[nH]3)c2n1` (configuration not stated) + Cc1ccccc1N=Nc1ccc(NC(=O)c2ccnn2C)c(C)c1, for which the IC50 was greater than 1000 nM under setting [1]; greater than 1000 nM under setting [2]; greater than 1000 nM under setting [3]; greater than 1000 nM under setting [4]; greater than 1000 nM under setting [5]. The viability, T/C was 96.4% (second compound 0.1 µM, first compound 0.00316 µM); 90.9% (second compound 0.1 µM, first compound 0.01 µM); 86% under setting [6]; 66% under setting [7]; 58.3% under setting [8]; 53% under setting [9]. In addition, the viability, T/C by setting is: (second compound 0.316 µM, first compound 0.00316 µM) 98.9%; (second compound 0.316 µM, first compound 0.01 µM) 96.1%; under setting [10], 87.5%; under setting [11], 71.3%; under setting [12], 52.2%; under setting [13], 52.7%. In addition, the viability, T/C is 85.2% (second compound 1 µM, first compound 0.00316 µM); 94.5% (second compound 1 µM, first compound 0.01 µM); 85.5% under setting [14]; 71.1% under setting [15]; 56% under setting [16]; 52.1% under setting [17]. Also, the viability, T/C runs as follows: (second compound 3.16 µM, first compound 0.00316 µM) 89.2%; (second compound 3.16 µM, first compound 0.01 µM) 94.2%; under setting [18], 91.5%; under setting [19], 70.5%; under setting [20], 56.6%; under setting [21], 49.9%. For the same molecule, the viability, T/C (second compound 10 µM, first compound 0.00316 µM) was 96.8%; the viability, T/C (second compound 10 µM, first compound 0.01 µM) was 88.9%; the viability, T/C under setting [22] was 77.9%; the viability, T/C under setting [23] was 74.6%; the viability, T/C under setting [24] is 63.4%; the viability, T/C under setting [25] is 52.8%.

As to `Nc1ccn(C2OC(CO)C(O)C2(F)F)c(=O)n1` (configuration not stated) + CC(CO)NC(=O)c1cc(-c2ccc(Cl)cc2)nn(-c2cnn(C)c2)c1=O, the IC50 is greater than 10000 nM under setting [1]; greater than 10000 nM under setting [2]; greater than 10000 nM under setting [3]; greater than 10000 nM under setting [4]; greater than 10000 nM under setting [5]. The viability, T/C is 94% under setting [6]; 93.3% under setting [7]; 67.5% under setting [8]; 60.2% under setting [9]; 65.2% (second compound 0.1 µM, first compound 3.16 µM); 63.1% (second compound 0.1 µM, first compound 10 µM). Also, the viability, T/C was 101% under setting [10]; 98% under setting [11]; 67.9% under setting [12]; 65.1% under setting [13]; 62% (second compound 0.316 µM, first compound 3.16 µM); 63.7% (second compound 0.316 µM, first compound 10 µM). Besides, the viability, T/C by setting is: under setting [14], 92.9%; under setting [15], 86.6%; under setting [16], 75.1%; under setting [17], 60.7%; (second compound 1 µM, first compound 3.16 µM) 61.1%; (second compound 1 µM, first compound 10 µM) 69.8%. Further, the viability, T/C is, setting by setting: under setting [18], 98.3%; under setting [19], 96.4%; under setting [20], 69.9%; under setting [21], 61.3%; (second compound 3.16 µM, first compound 3.16 µM) 59.7%; (second compound 3.16 µM, first compound 10 µM) 70.3%. For the same molecule, the viability, T/C is, setting by setting: under setting [22], 105%; under setting [23], 101%; under setting [24], 78%; under setting [25], 73.1%; (second compound 10 µM, first compound 3.16 µM) 66.8%; (second compound 10 µM, first compound 10 µM) 73.2%.

As for `O=C(C=Cn1cnc(-c2cc(C(F)(F)F)cc(C(F)(F)F)c2)n1)NNc1cnccn1`, the viability, T/C (compound 0.00949 µM) was 73.6% and 72.9% and 69.5%; the viability, T/C (compound 0.03 µM) was 63% and 56.7% and 62.2%; the viability, T/C (compound 0.0949 µM) was 29.8% and 8.08% and 13.8%; the viability, T/C (compound 0.3 µM) is 8.48% and 5.65% and 9.96%; the viability, T/C (compound 0.949 µM) was 8.74% and 6.18% and 8.91%; the viability, T/C (compound 3 µM) was 6.48% and 6.56% and 8.45%. Further, the IC50 (curve of compound) was 47.2 nM and 35.2 nM and 40.1 nM.
